#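 Cultured in 96-well plates, cells were exposed to test compound for 48 hours across five concentrations. Here, GI50 denotes the concentration required for 50% inhibition of growth. TGI marks complete inhibition of growth.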
# Columns and labels:
# Assay in all cases: inhibition of tumour cell growth, NCI panel, 48 h
# [1] = tested on: OVCAR-3 ovarian
# [2] = tested on: KM12 colon
# [3] = tested on: SK-OV-3 ovarian
# [4] = tested on: HOP-62 NSCLC
# [5] = tested on: OVCAR-4 ovarian
# [6] = tested on: SR leukemia
# [7] = tested on: HCT-15 colon
# [8] = tested on: IGROV1 ovarian
# [9] = tested on: A498 renal
# [10] = tested on: SF-539 CNS
# [11] = tested on: COLO 205 colon
# [12] = tested on: BT-549 breast
# [13] = tested on: NCI-H460 lung
# [14] = tested on: HS 578T breast
# [15] = tested on: NCI-H522 lung
# [16] = tested on: A549 NSCLC
# [17] = tested on: U251 CNS
# [18] = tested on: SNB-19 CNS
# [19] = tested on: SF-268 CNS
# [20] = tested on: PC-3 prostate
# [21] = tested on: DU-145 prostate
# [22] = tested on: K-562 leukemia
# [23] = tested on: SK-MEL-28 melanoma
# [24] = tested on: T-47D breast
# [25] = tested on: RPMI-8226 leukemia
# [26] = tested on: SN12C renal
# [27] = tested on: OVCAR-8 ovarian
# [28] = tested on: HT29 colon
# [29] = tested on: 786-0 renal
# [30] = tested on: ACHN renal
# [31] = tested on: MOLT-4 leukemia
# [32] = tested on: LOX IMVI melanoma
# [33] = tested on: MCF7 breast
# [34] = tested on: OVCAR-5 ovarian
# [35] = tested on: MDA-MB-435
# [36] = tested on: UACC-62 melanoma
# [37] = tested on: HCT-116 colon
# [38] = tested on: NCI-H23 lung
# [39] = tested on: EKVX NSCLC
# [40] = tested on: SK-MEL-2 melanoma
# [41] = tested on: SNB-75 CNS
# [42] = tested on: TK-10 renal
# [43] = tested on: UO-31 renal
# [44] = tested on: SW-620 colon
# [45] = tested on: CAKI-1 renal
# [46] = tested on: HL-60(TB) leukemia
# [47] = tested on: HOP-92 NSCLC
# [48] = tested on: NCI-H226 lung
# [49] = tested on: CCRF-CEM leukemia
# [50] = tested on: UACC-257 melanoma
# [51] = tested on: SF-295 CNS
# [52] = tested on: MALME-3M melanoma
# [53] = tested on: RXF 393 renal
# [54] = tested on: SK-MEL-5 melanoma
# [55] = tested on: M14 melanoma
# [56] = tested on: HCC-2998 colon
# [57] = tested on: NCI/ADR-RES ovarian
smiles,measurement,setting,value
COc1ccc(Nc2nc(N)c(C(=O)c3ccccc3)s2)cc1,TGI,[1],> 100 µM
same,TGI,[2],> 19.8 µM
same,TGI,[3],> 100 µM
same,TGI,[4],> 100 µM
same,TGI,[5],> 60.8 µM
same,TGI,[6],14.5 µM
same,TGI,[7],26.2 µM
same,TGI,[8],37 µM
same,TGI,[9],> 72.5 µM
same,TGI,[10],0.0327 µM
same,TGI,[11],0.333 µM
same,TGI,[12],> 84.5 µM
same,TGI,[13],19.9 µM
same,TGI,[14],3.18 µM
same,TGI,[15],> 100 µM
same,TGI,[16],> 74.5 µM
same,TGI,[17],> 100 µM
same,TGI,[18],> 100 µM
same,TGI,[19],> 58.1 µM
same,TGI,[20],> 62.4 µM
same,TGI,[21],> 72.8 µM
same,TGI,[22],> 100 µM
same,TGI,[23],> 100 µM
same,TGI,[24],> 100 µM
same,TGI,[25],32.7 µM
same,TGI,[26],66.3 µM
same,TGI,[27],> 100 µM
same,TGI,[28],15.4 µM
same,TGI,[29],31.6 µM
same,TGI,[30],> 100 µM
same,TGI,[31],> 61.7 µM
same,TGI,[32],> 100 µM
same,TGI,[33],> 100 µM
same,TGI,[34],> 78.4 µM
same,TGI,[35],> 100 µM
same,TGI,[36],> 100 µM
same,TGI,[37],3.38 µM
same,TGI,[38],> 60.3 µM
same,TGI,[39],58.2 µM
same,TGI,[40],32.2 µM
same,TGI,[41],0.33 µM
same,TGI,[42],> 100 µM
same,TGI,[43],44.2 µM
same,TGI,[44],> 100 µM
same,TGI,[45],33.3 µM
same,TGI,[46],0.271 µM
same,TGI,[47],> 92.7 µM
same,TGI,[48],29.5 µM
same,TGI,[49],> 80.6 µM
same,TGI,[50],> 100 µM
same,TGI,[51],> 100 µM
same,TGI,[52],> 100 µM
same,TGI,[53],24.2 µM
same,TGI,[54],4.01 µM
COc1ccc(Cl)cc1NC(=O)c1c(NC(=O)C(F)(F)C(F)(F)F)sc2c1CCCCC2,GI50,[55],2.66 µM
same,TGI,[55],> 100 µM
same,GI50,[3],2.18 µM
same,TGI,[3],6.89 µM
same,GI50,[4],2.49 µM
same,TGI,[4],7 µM
same,GI50,[5],1.57 µM
same,TGI,[5],5.64 µM
same,GI50,[6],1.23 µM
same,TGI,[6],> 100 µM
same,GI50,[8],2.81 µM
same,TGI,[8],> 100 µM
same,GI50,[9],0.312 µM
same,TGI,[9],2.06 µM
same,GI50,[11],1.3 µM
same,TGI,[11],2.8 µM
same,GI50,[12],2.06 µM
same,TGI,[12],7.23 µM
same,GI50,[14],1.37 µM
same,TGI,[14],7.54 µM
same,GI50,[15],0.588 µM
same,TGI,[15],7.68 µM
same,GI50,[16],2.54 µM
same,TGI,[16],> 100 µM
same,GI50,[17],1.89 µM
same,TGI,[17],> 100 µM
same,GI50,[18],1.57 µM
same,TGI,[18],> 100 µM
same,GI50,[19],1.09 µM
same,TGI,[19],> 100 µM
same,GI50,[20],1.47 µM
same,TGI,[20],11.3 µM
same,GI50,[21],2.72 µM
same,TGI,[21],> 100 µM
same,GI50,[22],0.663 µM
same,TGI,[22],> 100 µM
same,GI50,[23],1.9 µM
same,TGI,[23],> 100 µM
same,GI50,[24],1.26 µM
same,TGI,[24],5.49 µM
same,GI50,[25],0.523 µM
same,TGI,[25],3.21 µM
same,GI50,[27],2.02 µM
same,TGI,[27],> 100 µM
same,GI50,[28],2.48 µM
same,TGI,[28],> 100 µM
same,GI50,[30],1.76 µM
same,TGI,[30],7.11 µM
same,GI50,[32],2.62 µM
same,TGI,[32],> 100 µM
same,GI50,[56],1.88 µM
same,TGI,[56],> 100 µM
same,GI50,[33],1.68 µM
same,TGI,[33],8.68 µM
same,GI50,[34],2.61 µM
same,TGI,[34],> 100 µM
same,GI50,[35],2.52 µM
same,TGI,[35],> 100 µM
same,GI50,[36],0.397 µM
same,TGI,[36],3.86 µM
same,GI50,[37],1.3 µM
same,TGI,[37],5.67 µM
same,GI50,[38],1.54 µM
same,TGI,[38],7.38 µM
same,GI50,[40],1.07 µM
same,TGI,[40],5.71 µM
same,GI50,[41],1.49 µM
same,TGI,[41],5.64 µM
same,GI50,[43],1.94 µM
same,TGI,[43],5.75 µM
same,GI50,[44],1.93 µM
same,TGI,[44],> 100 µM
same,GI50,[45],1.03 µM
same,TGI,[45],4.86 µM
same,GI50,[46],2.13 µM
same,TGI,[46],6.63 µM
same,GI50,[47],0.263 µM
same,TGI,[47],0.947 µM
same,GI50,[48],1.91 µM
same,TGI,[48],6.05 µM
same,GI50,[49],0.769 µM
same,TGI,[49],> 100 µM
same,GI50,[57],1.8 µM
same,TGI,[57],8.37 µM
same,GI50,[51],1.03 µM
same,TGI,[51],3.73 µM
same,GI50,[52],1.58 µM
same,TGI,[52],5.63 µM
same,GI50,[53],1.73 µM
same,TGI,[53],5.28 µM
same,GI50,[54],0.242 µM
same,TGI,[54],0.585 µM
